“And” between values parts separate entries of the source, which are not always exact repeats. Identical values can stand only once. Like-named read-outs stand apart in the source and are kept apart here.
Tests used:
[1] = Tissue analysis (internal tissue dose of parent PFAS, bioconcentration factor); format: in vivo, Danio rerio; details: for Parent compound in fish tissue at 6 dpf: Study 1, daily exposure 0–5 dpf; for Parent compound in fish tissue at 6 dpf / BCFdry / concentration at 6 dpf: 0.4% DMSO; for BCFdry: 6-d zebrafish assay; for concentration at 6 dpf: zebrafish (Danio rerio), whole larvae (pools of 10, homogenised), other: waterborne exposure in the well medium, 6 dpf larvae, dry weight 44 μg per larva, read-out: Measured tissue dose; for Dil Corrected Reported Conc. (fMole/larvae), measured tissue concentration: zebrafish larvae, replicate samples per experiment/plate; for Bioaccumulation ranking: among chemicals assessed, from BCF values
Method: Zebrafish were exposed to 25.1, 44.8, or 80.0μM ADONA, PFOA, PFESA1, or PFHxA, 14.0, 25.1, or 44.8μM PFHxS, or 1.0, 1.8, or 3.1μM PFOS, or 0.4% DMSO. The highest concentration evaluated was the no observed effect concentration (NOEC) determined in Study 1. In Study 2, zebrafish were exposed to 25.1, 44.8, or 80.0μM GenX Free Acid or 0.4% DMSO. According to the previously described microtiter plate inclusion criterion, 15/15 plates were included in the study. Larvae were anesthetized by rapid cooling in chilled 10% HBSS. Groups of 10 anesthetized larvae were pooled to comprise one biological replicate ( n=4 ) in 500μL of 10% HBSS, flash frozen in liquid nitrogen, and stored at −80°C . In the case of ADONA, n=5 .
Tissue samples were prepared by protein precipitation. Flash frozen samples, consisting of pools of ten 6-dpf zebrafish larvae, were homogenized using ∼100mg of 1.0-mm diameter zirconia/silica beads and a Fast-Prep-24™ homogenizer (MP Biomedicals) in 100μL 0.1M formic acid fortified with the surrogate (i.e., PFNA). Protein was precipitated from the homogenate with 400μL of acetonitrile containing internal standards and separated by centrifugation at 14,000 rpm for 15 min at 4°C. Fifty microliters of the extract was diluted with 200μL aqueous 0.4 mM ammonium formate in the LC vial for analysis. Standards and samples were analyzed with Vanquish UPLC and Orbitrap Fusion mass spectrometer (Thermo Electron) operated in negative ESI mode. ESI source conditions were optimized for the [M-H]^− ion of PFAS as follows: spray voltage −3.5 kV , sheath gas 25 au (arbitrary units), aux gas 6 au, sweep gas 0 au, ion transfer tube temperature 300°C, and vaporizer temperature […]. High-resolution accurate mass (HRAM) MS1 scans were collected with the following parameters: detector type orbitrap, orbitrap resolution 30,000 full width at half maximum (FWHM), normal mass range, Use quadrapole isolation=true , scan range 70–700m/z , radio frequency (RF) lens 60%, automatic gain control (AGC) target 4.00×10^5 , max injection time of 50 ms , 1 microscan, data type set to profile, negative polarity, and source fragmentation disabled. Data-dependent orbitrap MSMS (ddMS2-OT) scans were collected for the [M-H]^− ion [ M-H-CO2 for GenX]^– using a target mass list for the eight PFAS and PFNA surrogate for identity confirmation. The apex detection was set to an expected peak width of 2 s at FWHM and desired apex peak window of 30%. The dynamic exclusion parameters were set to exclude after a one-time, 60-s exclusion duration, low and high mass tolerances of 10 ppm , and exclude isotope was set to true. The intensity threshold for collecting an MSMS scan was set to 2.5E+04 . Fragmentation was done by high-energy collisional dissociation (HCD). The ddMS2-OT scans were collected with the following parameters: orbitrap isolation mode, isolation window of 1.6m/z , isolation offset off, stepped HCD collision energy of 30%±10% , scan range of auto mass-to-charge ratio normal, orbitrap resolution of 30,000 FWHM, first mass 75m/z , max injection time of […], AGC target 5.00×10^4 , inject ions from available parallelizable time set to true, max injection time of 54 ms, 1 microscan, and data type set to centroid. UPLC separation was achieved using ACQUITY UPLC BEH C18 Column, 130Å , 1.7μM , 2.1mm×50mm (Waters Corp P/N 186,002,350) at 50°C with gradient elution at a flow rate of 300μL/min using 0.4 mM ammonium formate in acetonitrile and water with a 10-μL injection. Data collection, integration, calibration, and quantitation were performed using Xcalibur software (version 4.1; Thermo Electron). Concentration for each PFAS analyte was determined by internal standard technique using isotopically labeled internal standards and matrix-matched calibration standards. Quantitative analysis was performed using high-resolution MS1-extracted ion chromatograms. […]

[2] = tested on: zebrafish; details: cited from earlier work; for EC50: previously published zebrafish DevTox assay data, read-out: EC50 for developmental toxicity
[3] = tested on: zebrafish; details: Table 5 summary, cited from earlier work

For `O=C(O)C(F)(F)C(F)(F)C(F)(F)C(F)(F)C(F)(F)C(F)(F)C(F)(F)F` [PFOA, Perfluoro-n-octanoic acid], the “Parent compound in fish tissue at 6 dpf” value [1] was “detectable levels”, the BCFdry ([1]; nominal 25.1 μM) was 11.68 L/kg and the BCFdry ([1]; nominal 44.8 μM) was 6.52 L/kg. It also gave a BCFdry ([1]; nominal 80.0 μM) of 5.17 L/kg, a concentration at 6 dpf ([1]; nominal 25.1 μM daily 0–5 dpf) of 116000 ± 25200 ng/g and a concentration at 6 dpf ([1]; nominal 44.8 μM daily 0–5 dpf) of 124000 ± 29900 ng/g. For the same compound, the concentration at 6 dpf ([1]; nominal 80.0 μM daily 0–5 dpf) was 171000 ± 41100 ng/g, the “Dil Corrected Reported Conc. (fMole/larvae), measured tissue concentration” value ([1]; exposure Concentration 25.1 µM) was 16735.5 fMole/larvae and 10378.2 fMole/larvae and 12074.8 fMole/larvae and 10012 fMole/larvae and the “Dil Corrected Reported Conc. (fMole/larvae), measured tissue concentration” value ([1]; exposure Concentration 44.8 µM) was 10919.7 fMole/larvae and 9223.5 fMole/larvae and 16062.6 fMole/larvae and 16554.8 fMole/larvae. The “Dil Corrected Reported Conc. (fMole/larvae), measured tissue concentration” value ([1]; exposure Concentration 80 µM) was 21852.9 fMole/larvae and 22967.7 fMole/larvae and 14850.1 fMole/larvae and 12804.3 fMole/larvae, the DevTox assay phenotype ([2]; Table 5 summary, zebrafish, ref Hagenaars et al. 2011, Jantzen et al. 2016, Ulhaq et al. 2013a) was “Positive” and the DNT assay phenotype ([3]; ref Ulhaq et al. 2013b) was “Hyperactivity”.
For `O=S(=O)(O)C(F)(F)C(F)(F)OC(F)(C(F)(F)F)C(F)(F)OC(F)=C(F)F` (stereo not drawn) [PFESA1, Perfluoro-3,6-dioxa-4-methyl-7-octene-1-sulfonic acid], the “Parent compound in fish tissue at 6 dpf” value [1] was “detectable levels”, the “Bioaccumulation ranking” value [1] was “least bioaccumulative” and the BCFdry ([1]; nominal 25.1 μM) was 3.09 L/kg. It also gave a BCFdry ([1]; nominal 44.8 μM) of 2.62 L/kg, a BCFdry ([1]; nominal 80.0 μM) of 1.44 L/kg and a concentration at 6 dpf ([1]; nominal 25.1 μM daily 0–5 dpf) of 23700 ± 17500 ng/g. For the same compound, the concentration at 6 dpf ([1]; nominal 44.8 μM daily 0–5 dpf) was 37000 ± 17400 ng/g, the concentration at 6 dpf ([1]; nominal 80.0 μM daily 0–5 dpf) was 43200 ± 4840 ng/g and the “Dil Corrected Reported Conc. (fMole/larvae), measured tissue concentration” value ([1]; exposure Concentration 25.1 µM) was 4.79E+03 fMole/larvae and 1603 fMole/larvae and 2911 fMole/larvae and 78 fMole/larvae. The “Dil Corrected Reported Conc. (fMole/larvae), measured tissue concentration” value ([1]; exposure Concentration 44.8 µM) was 2778 fMole/larvae and 2495 fMole/larvae and the “Dil Corrected Reported Conc. (fMole/larvae), measured tissue concentration” value ([1]; exposure Concentration 80 µM) was 3514 fMole/larvae and 4409 fMole/larvae.
For `O=C(O)C(F)(F)C(F)OC(F)(F)C(F)(F)C(F)(F)OC(F)(F)F` (stereo not drawn) [ADONA, 4,8-Dioxa-3H-perfluorononanoate], the “Parent compound in fish tissue at 6 dpf” value [1] was “detectable levels”, the “Bioaccumulation ranking” value [1] was “least bioaccumulative” and the BCFdry ([1]; nominal 25.1 μM) was 0.95 L/kg. It also gave a BCFdry ([1]; nominal 44.8 μM) of 0.94 L/kg, a BCFdry ([1]; nominal 80.0 μM) of 0.56 L/kg and a concentration at 6 dpf ([1]; nominal 25.1 μM daily 0–5 dpf) of 9490 ± 3100 ng/g. For the same compound, the concentration at 6 dpf ([1]; nominal 44.8 μM daily 0–5 dpf) was 16000 ± 6290 ng/g, the concentration at 6 dpf ([1]; nominal 80.0 μM daily 0–5 dpf) was 14900 ± 3110 ng/g and the “Dil Corrected Reported Conc. (fMole/larvae), measured tissue concentration” value ([1]; exposure Concentration 25.1 µM) was 687.994 fMole/larvae and 814.543 fMole/larvae and 1674.31 fMole/larvae and 986.423 fMole/larvae and 1056.18 fMole/larvae. The “Dil Corrected Reported Conc. (fMole/larvae), measured tissue concentration” value ([1]; exposure Concentration 44.8 µM) was 1721.39 fMole/larvae and 1579.99 fMole/larvae and 1307.54 fMole/larvae and 1119.74 fMole/larvae and 3082.15 fMole/larvae and the “Dil Corrected Reported Conc. (fMole/larvae), measured tissue concentration” value ([1]; exposure Concentration 80 µM) was 1324.81 fMole/larvae and 2040.26 fMole/larvae and 1665.47 fMole/larvae and 1967.75 fMole/larvae and 1175.25 fMole/larvae.
For `O=S(=O)(O)C(F)(F)C(F)(F)C(F)(F)C(F)(F)C(F)(F)C(F)(F)C(F)(F)C(F)(F)F` [PFOS, Perfluorooctanesulfonic acid], the “Bioaccumulation ranking” value [1] was “most bioaccumulative”, the BCFdry ([1]; nominal 1.0 μM) was 1,374.89 L/kg and the BCFdry ([1]; nominal 1.8 μM) was 1,348.46 L/kg. For the same compound, the BCFdry ([1]; nominal 3.1 μM) was 684.03 L/kg, the concentration at 6 dpf ([1]; nominal 1.0 μM daily 0–5 dpf) was 220000 ± 109000 ng/g and the concentration at 6 dpf ([1]; nominal 1.8 μM daily 0–5 dpf) was 422000 ± 183000 ng/g. The concentration at 6 dpf ([1]; nominal 3.1 μM daily 0–5 dpf) was 678000 ± 53500 ng/g, the “Dil Corrected Reported Conc. (fMole/larvae), measured tissue concentration” value ([1]; exposure Concentration 0.986 µM) was 29113.1 fMole/larvae and 7862.61 fMole/larvae and 11812.2 fMole/larvae and 28665.6 fMole/larvae and the “Dil Corrected Reported Conc. (fMole/larvae), measured tissue concentration” value ([1]; exposure Concentration 1.76 µM) was 24142 fMole/larvae and 18963.9 fMole/larvae and 47666.3 fMole/larvae and 57759 fMole/larvae. The “Dil Corrected Reported Conc. (fMole/larvae), measured tissue concentration” value ([1]; exposure Concentration 3.144 µM) was 57262.1 fMole/larvae and 67321.8 fMole/larvae and 54771.6 fMole/larvae and 59188.7 fMole/larvae, the EC50 ([2]; ref Padilla et al. 2012) was 42.3 µM and the EC50 ([2]; ref Truong et al. 2014) was 3.5 µM. For the same compound, the DNT assay phenotype ([3]; ref Ulhaq et al. 2013b) was “Hypoactivity”.
With `O=S(=O)(O)C(F)(F)C(F)(F)C(F)(F)C(F)(F)C(F)(F)C(F)(F)F` [PFHxS, Perfluorohexanesulfonic acid] the BCFdry ([1]; nominal 14.0 μM) was 11.82 L/kg, the BCFdry ([1]; nominal 25.1 μM) was 8.01 L/kg and the BCFdry ([1]; nominal 44.8 μM) was 9.30 L/kg. It also gave a concentration at 6 dpf ([1]; nominal 14.0 μM daily 0–5 dpf) of 107000 ± 50100 ng/g, a concentration at 6 dpf ([1]; nominal 25.1 μM daily 0–5 dpf) of 129000 ± 31500 ng/g and a concentration at 6 dpf ([1]; nominal 44.8 μM daily 0–5 dpf) of 261000 ± 57200 ng/g. The “Dil Corrected Reported Conc. (fMole/larvae), measured tissue concentration” value ([1]; exposure Concentration 14 µM) was 8.83E+03 fMole/larvae and 1.94E+04 fMole/larvae and 6.95E+03 fMole/larvae and 7.88E+03 fMole/larvae, the “Dil Corrected Reported Conc. (fMole/larvae), measured tissue concentration” value ([1]; exposure Concentration 25.1 µM) was 1.35E+04 fMole/larvae and 1.76E+04 fMole/larvae and 8.93E+03 fMole/larvae and 1.16E+04 fMole/larvae and the “Dil Corrected Reported Conc. (fMole/larvae), measured tissue concentration” value ([1]; exposure Concentration 44.8 µM) was 2.76E+04 fMole/larvae and 3.50E+04 fMole/larvae and 2.15E+04 fMole/larvae and 2.07E+04 fMole/larvae. For the same compound, the EC50 ([2]; ref Padilla et al. 2012) was 116 µM, the EC50 ([2]; ref Truong et al. 2014) was 115 µM and the DNT assay phenotype ([3]; ref Khezri et al. 2017) was “Negative”.
For `O=C(O)C(F)(F)C(F)(F)C(F)(F)C(F)(F)C(F)(F)F` [PFHxA, Perfluorohexanoic acid], the “Bioaccumulation ranking” value [1] was “least bioaccumulative”, the BCFdry ([1]; nominal 25.1 μM) was 0.46 L/kg and the BCFdry ([1]; nominal 44.8 μM) was 0.18 L/kg. For the same compound, the BCFdry ([1]; nominal 80.0 μM) was 0.24 L/kg, the concentration at 6 dpf ([1]; nominal 25.1 μM daily 0–5 dpf) was 4970 ± 4400 ng/g and the concentration at 6 dpf ([1]; nominal 44.8 μM daily 0–5 dpf) was 3280 ± 560 ng/g. For the same compound, the concentration at 6 dpf ([1]; nominal 80.0 μM daily 0–5 dpf) was 8770 ± 4310 ng/g, the “Dil Corrected Reported Conc. (fMole/larvae), measured tissue concentration” value ([1]; exposure Concentration 25.1 µM) was 643.192 fMole/larvae and 1721.28 fMole/larvae and 198.739 fMole/larvae and 224.57 fMole/larvae and the “Dil Corrected Reported Conc. (fMole/larvae), measured tissue concentration” value ([1]; exposure Concentration 44.8 µM) was 344.178 fMole/larvae and 504.145 fMole/larvae and 437.515 fMole/larvae and 553.638 fMole/larvae. The “Dil Corrected Reported Conc. (fMole/larvae), measured tissue concentration” value ([1]; exposure Concentration 80 µM) was 1323.26 fMole/larvae and 776.14 fMole/larvae and 638.759 fMole/larvae and 2174.95 fMole/larvae.

Reference: article PMC7228129, “Evaluation of Developmental Toxicity, Developmental Neurotoxicity, and Tissue Dose in Zebrafish Exposed to GenX and Other PFAS” (Environmental Health Perspectives, 2020)
